Reference: patent US20220056014A1, “PHENYLPYRROLIDINE COMPOUND AND USE THEREOF” (WUHAN HUMANWELL INNOVATIVE DRUG RESEARCH AND DEVELOPMENT …, priority 2018, published 2022)
Where two headings read alike, the source gives them in different places.

What was measured:
[1] = test system: LPS-stimulated TNF-α release; test: LPS-stimulated TNF-α release in mice; type: in vivo, Balb/c mice; settings: Mus musculus, oral 50 mg/kg (positive control 100 mg/kg), 1 mg/kg LPS i.p.
Procedure, shortened: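 Balb/c mice (6 per group) dosed orally with 50 mg/kg compound, then 1 mg/kg LPS i.p. 30 min later; serum taken 90 or 120 min post-LPS. Serum TNF-α measured by ELISA; inhibition % calculated relative to model and blank (PBS) groups.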

Rat pharmacokinetic test = type: in vivo, SD rats; settings: male, Sprague-Dawley (SD), plasma, oral gavage 10 mg/kg
Protocol: (§1) In the rat pharmacokinetic test, 3 male SD rats (180-240 g) were fasted overnight, and orally administered with 10 mg/kg of compound to be tested. Blood was collected before the administration, and 15 min, 30 min, 1 h, 2 h, 4 h, 8 h, and 24 h hours after the administration. The blood sample was centrifuged at 8000 rpm for 6 min at 4° C., and the plasma was collected and stored at −20° C. The plasma collected at each time point was added and mixed with 3-5 times the amount of acetonitrile solution containing an internal standard, vortexed for 1 min, centrifuged at 13,000 rpm for 10 min at 4° C. The supernatant was taken and mixed with 3 times the amount of water, and an appropriate amount of the mixture was taken for LC-MS/MS analysis. The main pharmacokinetic parameters were analyzed with WinNonlin 7.0 software non-compartmental model.

PDE4B = biological target: T1, PDE4B (Homo sapiens, UniProt Q07343); test: PDE4B enzyme activity assay (PDE-Glo Phosphodiesterase Assay Kit); type: biochemical; settings: for IC50 (PDE4D)/IC50 (PDE4B): selectivity ratio
T1 construct: purchased Enzo Life Sciences BML-SE522-0020
Procedure, shortened: (§2)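 Recombinant human PDE4B (1 ng/μl working solution) or PDE4D (4 ng/μl working solution) preincubated 5 min at RT with compound, then reacted 20 min with cAMP (2 μM in added solution). PDE-Glo termination/detection and Kinase-Glo steps followed; luminescence read and IC50 fitted.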

[2] = Pharmacokinetic test in canine; type: in vivo, beagle dogs; settings: male, beagle, dog, plasma, oral gavage 5 mg/kg
Protocol: as §1
(§3) In the mouse pharmacokinetic test, 9 male CD-1 mice (20-25 g) were fasted overnight, and orally administered with 10 mg/kg of the compound to be tested. Bloods of 3 mice were collected at each time point, and bloods of 9 mice were alternately collected in total. In the pharmacokinetic test in canine, 3 male beagle dogs (8-10 kg) were fasted overnight, and orally administered with 5 mg/kg of the compound to be test. In the pharmacokinetic test of cynomolgus monkeys, 3 male cynomolgus monkeys (4 to 6.5 kg) were fasted overnight, and orally administered 20 mg/kg of the compound to be test. The remaining processes are the same as those of the rat pharmacokinetic test.

PDE4D = biological target: T2, PDE4D (Homo sapiens, UniProt Q08499); test: PDE4D enzyme activity assay (PDE-Glo Phosphodiesterase Assay Kit); type: biochemical
T2 construct: purchased Enzo Life Sciences BML-SE523-0020
Procedure, shortened: as §2

[3] = Pharmacokinetic test of cynomolgus monkeys; type: in vivo; settings: male, plasma; cynomolgus monkey, oral gavage 20 mg/kg
Protocol: as §1, §3

[4] = 1.5 h, blood 90 min after LPS, read-out: Inhibition rate (%) of LPS-stimulated TNF-α release, 90 min
[5] = 2 h, blood 120 min after LPS, read-out: Inhibition rate (%) of LPS-stimulated TNF-α release, 120 min

T1 sequence (Q07343 whole entry): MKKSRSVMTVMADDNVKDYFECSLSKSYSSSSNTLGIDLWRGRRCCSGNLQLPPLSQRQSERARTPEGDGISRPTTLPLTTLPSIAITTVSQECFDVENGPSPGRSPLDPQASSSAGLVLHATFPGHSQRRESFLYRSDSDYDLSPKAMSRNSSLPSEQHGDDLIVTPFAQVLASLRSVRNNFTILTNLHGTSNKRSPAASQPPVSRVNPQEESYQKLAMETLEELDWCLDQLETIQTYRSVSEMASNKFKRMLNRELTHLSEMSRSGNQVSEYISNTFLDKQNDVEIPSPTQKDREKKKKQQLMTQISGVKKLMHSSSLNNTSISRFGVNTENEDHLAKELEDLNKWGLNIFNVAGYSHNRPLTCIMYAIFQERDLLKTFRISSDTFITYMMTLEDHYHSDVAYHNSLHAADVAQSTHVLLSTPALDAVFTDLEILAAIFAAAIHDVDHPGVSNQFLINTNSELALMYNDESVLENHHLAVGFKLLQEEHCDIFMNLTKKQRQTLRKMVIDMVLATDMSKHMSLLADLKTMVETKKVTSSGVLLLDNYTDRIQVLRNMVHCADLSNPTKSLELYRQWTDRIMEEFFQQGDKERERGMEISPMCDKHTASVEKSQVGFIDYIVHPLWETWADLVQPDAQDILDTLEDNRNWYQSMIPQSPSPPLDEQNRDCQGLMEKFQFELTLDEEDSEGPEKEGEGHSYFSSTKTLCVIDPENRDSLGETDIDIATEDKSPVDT
T2 sequence (Q08499 whole entry): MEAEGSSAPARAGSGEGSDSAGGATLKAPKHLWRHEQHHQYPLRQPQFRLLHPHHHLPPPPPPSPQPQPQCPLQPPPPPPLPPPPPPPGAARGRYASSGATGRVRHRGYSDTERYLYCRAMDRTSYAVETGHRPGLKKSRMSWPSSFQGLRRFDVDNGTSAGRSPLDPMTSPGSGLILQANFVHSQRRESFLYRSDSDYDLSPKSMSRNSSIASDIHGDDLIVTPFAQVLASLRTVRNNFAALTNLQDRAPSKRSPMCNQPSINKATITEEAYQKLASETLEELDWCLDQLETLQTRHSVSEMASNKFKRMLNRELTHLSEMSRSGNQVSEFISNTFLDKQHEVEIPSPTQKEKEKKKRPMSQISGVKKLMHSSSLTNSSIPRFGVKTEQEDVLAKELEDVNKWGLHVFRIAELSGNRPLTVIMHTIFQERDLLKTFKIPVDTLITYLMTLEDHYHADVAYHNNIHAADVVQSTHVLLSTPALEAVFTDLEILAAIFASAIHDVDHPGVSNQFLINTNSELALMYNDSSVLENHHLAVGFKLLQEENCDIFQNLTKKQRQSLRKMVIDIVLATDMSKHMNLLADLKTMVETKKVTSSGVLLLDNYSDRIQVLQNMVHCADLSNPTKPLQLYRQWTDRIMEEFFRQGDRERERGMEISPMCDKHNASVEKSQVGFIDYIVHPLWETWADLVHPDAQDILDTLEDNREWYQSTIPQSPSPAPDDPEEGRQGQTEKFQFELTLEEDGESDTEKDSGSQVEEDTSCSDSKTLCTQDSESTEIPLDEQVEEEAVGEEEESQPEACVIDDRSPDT

Row | SMILES | inhibition in vivo at 50 mg/kg [1, 4] [%] | inhibition in vivo at 50 mg/kg [1, 5] [%] | AUC(0-t) (Rat pharmacokinetic test) [ng·h/mL] | Cmax (Rat pharmacokinetic test) [ng/mL] | Tmax (Rat pharmacokinetic test) [min] | IC50 (PDE4B) [nM] | IC50 (PDE4D)/IC50 (PDE4B) (PDE4B) | AUC(0-t) [2] [ng·h/mL] | Cmax [2] [ng/mL] | Tmax [2] [min] | IC50 (PDE4D) [nM] | AUC(0-t) [3] [ng·h/mL] | Cmax [3] [ng/mL] | Tmax [3] [min]
1 | COc1ccc([C@@H]2CN(C(=O)[C@@H](O)CO)C[C@@]2(C)[C@@H](C)O)cc1OC1CN(c2ncc(C)cc2F)C1 [Compound 004, (S)-1-((3S,4S)-4-(3-((1-(3-fluoro-5-methylpyridin-2-yl)azetidin-3-yl)oxy)-4-methoxyphenyl)-3-((R)-1-hydroxyethyl)-3-methylpyrrolidin-1-yl)-2,3-dihydroxypropan-1-one] | 39.6 | 58.6 | 2480 | 823 | 25.2 | 0.93 | 1.20 | 1740 | 484 | 49.8 | 1.12 | – | – | –
2 | COc1ccc([C@@H]2CN(C(=O)[C@@H](O)CO)C[C@@]2(C)[C@@H](C)O)cc1OC1CN(c2ccc(Cl)c(C)n2)C1 [Compound 011, (S)-1-((3S,4S)-4-(3-((1-(5-chloro-6-methylpyridin-2-yl)azetidin-3-yl)oxy)-4-methoxyphenyl)-3-((R)-1-hydroxyethyl)-3-methylpyrrolidin-1-yl)-2,3-dihydroxypropan-1-one] | 47.4 | 63.3 | 294 | 126 | 25.2 | 2.31 | 0.46 | 1420 | 356 | 49.8 | 1.07 | – | – | –
3 | COc1ccc([C@@H]2CN(C(=O)[C@@H](O)CO)C[C@@]2(C)[C@@H](C)O)cc1OC1CN(c2ccc(C)cn2)C1 [Positive control compound, reference compound] | 44.4 | 49 | 190 | 68.2 | 30 | 2.1 | 0.20 | 423 | 159 | 55.2 | 0.41 | 3640 | 565 | 90
4 | COc1ccc([C@@H]2CN(C(=O)[C@@H](O)CO)C[C@@]2(C)[C@@H](C)O)cc1OC1CN(c2ccc(C)c(C)n2)C1 [Compound 007, (S)-1-((3S,4S)-4-(3-((1-(5,6-dimethylpyridin-2-yl)azetidin-3-yl)oxy)-4-methoxyphenyl)-3-((R)-1-hydroxyethyl)-3-methylpyrrolidin-1-yl)-2,3-dihydroxypropan-1-one] | 52.1 | 66.4 | 1530 | 735 | 30 | 1.17 | 3.37 | 1690 | 689 | 15 | 3.94 | 44400 | 13800 | 105
